These results are taken from paper PMC3643815 (Combinatorial chemistry & high throughput screening, 2011).

Counter-ions that a name gives are not always drawn. Like-named read-outs stand apart in the source and are kept apart here.

Series [1] in a line: Solubility by laser nephelometry. As to conditions: dilutions up to 77 μM.
In series [2] the target is T1, human Cdc7-Dbf4 kinase (Cdc7-Dbf4 heterodimer) (Homo sapiens, UniProt O00311). Description: Cdc7-Dbf4 kinase assay with the LUM method. The format is biochemical. As to conditions: for ADP production IC50: LUM method, 12.5 μM ATP, up to 77 μM compound, duplicate, N.E. = no effect.
T1 sequence (O00311 whole entry): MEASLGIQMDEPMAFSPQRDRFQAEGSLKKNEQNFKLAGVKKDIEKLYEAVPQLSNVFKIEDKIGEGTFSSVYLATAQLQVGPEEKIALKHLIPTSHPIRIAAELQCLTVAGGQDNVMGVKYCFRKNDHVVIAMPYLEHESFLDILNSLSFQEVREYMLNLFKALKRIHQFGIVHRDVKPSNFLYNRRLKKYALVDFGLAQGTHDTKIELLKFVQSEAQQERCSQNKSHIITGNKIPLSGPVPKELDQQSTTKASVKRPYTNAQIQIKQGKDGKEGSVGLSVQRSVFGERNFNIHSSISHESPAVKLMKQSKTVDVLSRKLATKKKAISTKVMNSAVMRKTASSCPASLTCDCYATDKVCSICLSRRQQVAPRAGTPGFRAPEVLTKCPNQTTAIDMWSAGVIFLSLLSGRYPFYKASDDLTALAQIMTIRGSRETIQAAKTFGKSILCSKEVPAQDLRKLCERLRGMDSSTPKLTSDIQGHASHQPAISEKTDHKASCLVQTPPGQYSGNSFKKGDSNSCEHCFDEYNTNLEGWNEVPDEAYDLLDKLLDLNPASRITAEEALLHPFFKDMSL
T1 sequence (Q9UBU7 whole entry partner): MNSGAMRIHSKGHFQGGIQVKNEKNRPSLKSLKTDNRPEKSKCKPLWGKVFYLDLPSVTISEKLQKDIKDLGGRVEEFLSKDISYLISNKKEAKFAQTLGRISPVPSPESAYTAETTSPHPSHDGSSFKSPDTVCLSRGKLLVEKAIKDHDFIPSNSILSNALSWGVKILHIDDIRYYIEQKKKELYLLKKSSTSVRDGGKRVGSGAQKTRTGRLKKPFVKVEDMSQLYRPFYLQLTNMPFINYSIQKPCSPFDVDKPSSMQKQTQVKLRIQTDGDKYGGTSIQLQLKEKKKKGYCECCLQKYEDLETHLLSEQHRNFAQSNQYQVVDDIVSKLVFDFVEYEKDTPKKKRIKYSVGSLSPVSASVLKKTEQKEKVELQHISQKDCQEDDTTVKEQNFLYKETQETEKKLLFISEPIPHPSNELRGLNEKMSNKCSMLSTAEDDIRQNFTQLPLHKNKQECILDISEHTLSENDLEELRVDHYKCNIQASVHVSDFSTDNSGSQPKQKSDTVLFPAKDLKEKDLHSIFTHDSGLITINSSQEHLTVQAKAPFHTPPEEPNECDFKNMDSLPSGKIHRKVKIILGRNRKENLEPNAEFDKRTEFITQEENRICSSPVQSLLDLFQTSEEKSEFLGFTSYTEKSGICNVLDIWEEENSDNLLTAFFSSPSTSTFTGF
The subject of series [3] is ADP processing (ATP depletion, ATP regeneration, luciferase reaction). Description: Dose response in the ADP processing step of the LUM method. The format is biochemical.
The test system of series [4] is luminescence detection (luciferase luminescence signal). Description: Dose response in the luminescence detection step of the LUM method.
The target in series [5] is T1, human Cdc7-Dbf4 kinase (Cdc7-Dbf4 heterodimer). In words: Cdc7-Dbf4 kinase assay with the SPA method. The conditions noted are these: 45 mM EDTA in 1% DMSO, 25 μM [γ-33P]-ATP. The format is biochemical.

Turning to `O=c1cc(-c2cc(O)c(O)c(O)c2)oc2cc(O)cc(O)c12` [Hieracin], the Solubility entry in series [1] is reported as “Soluble”. In addition, the “ADP production IC50” value in series [2] is “N.E”. On to `N=C1C=CC(=C(c2ccc(N)cc2)c2ccc(N)cc2)C=C1` [Pararosaniline pamoate, reference compound], for which the Solubility result in series [1] is “Soluble”. For the compound `O=C(O)/C=C/c1ccc(O)c(O)c1` [Caffeic acid], the Solubility result in series [1] is recorded as “Soluble”.

Regarding `O=c1c(O)c(-c2ccc(O)c(O)c2)oc2cc(O)ccc12` [Fisetin], in series [1], the Solubility entry is given as “Soluble”. Also, the “ADP production IC50” value in series [2] is on record as “N.E”. The like results for `O=C(CCCCC(=O)Nc1c(I)cc(I)c(C(=O)O)c1I)Nc1c(I)cc(I)c(C(=O)O)c1I` [Iodipamide, reference compound] were, in that order, “Soluble” and “N.E”. In the case of `O=C1C=C2CC3(O)COc4c(ccc(O)c4O)C3=C2C=C1O` (stereo not drawn) [Hematein], the Solubility entry in series [1] was “Soluble”. Consider Pyrogallin, for which the Solubility entry in series [1] is “Soluble”. Besides, the “ADP production IC50” value in series [2] is “N.E”. Regarding `O=c1c(O)cccc2cc(O)c(O)c(O)c12` [Purpurogallin], the Solubility result in series [1] is “Soluble”. Besides, the “ADP production IC50” value in series [2] is “N.E. ^1”. With `O=C(O[C@@H]1Cc2c(O)cc(O)cc2O[C@@H]1c1cc(O)c(O)c(O)c1)c1cc(O)c(O)c(O)c1` [Epigallocatechin-3-monogallate], the Solubility result in series [1] is recorded as “Soluble”.

As for `CC(=O)Oc1cc(-c2coc3cc(OC(C)=O)c(OC(C)=O)c(OC(C)=O)c3c2=O)cc(OC(C)=O)c1OC(C)=O` [Iriginol hexaaceatate], in series [1], the Solubility entry is reported as “Soluble”. For the compound `O=C(O[C@@H]1Cc2c(O)cc(O)cc2O[C@@H]1c1cc(O)c(=O)c2c(O)c(O)cc([C@H]3Oc4cc(O)cc(O)c4C[C@H]3O)c2c1)c1cc(O)c(O)c(O)c1` [Theaflavin monogallates], in series [1], the Solubility result is on record as “Soluble”. In the case of Tannic acid, the “concentration at which ATP depletion is inhibited” value in series [3] is listed as “higher than 0.2 μM”. Also, the “concentration at which compound inhibits luminescence detection” value in series [4] came out at 10 µM. For the same compound, the Solubility result in series [1] is recorded as “Soluble”. The “percent inhibition, Set 1” value in series [2] (LUM method pilot screen, 10 μM compound in 1% DMSO, Set 1 of duplicate) was 46%. For the same compound, the “percent inhibition, Set 2” value in series [2] (LUM method pilot screen, 10 μM compound in 1% DMSO, Set 2 of duplicate) is 52%. Further, the “averaged percent inhibition (two data sets)” value in series [2] (LUM method pilot screen, 10 μM compound, average of duplicate) turned out to be 49%. As to `O=C(O)CN(CCN(CC(=O)O)CC(=O)O)CC(=O)O` [EDTA], the “inhibition of Cdc7-Dbf4 kinase activity (control selection)” value in series [5] was “inhibited the Cdc7-Dbf4 kinase activity”. `CCOC(=O)[C@H](CCc1ccccc1)N[C@@H](C)C(=O)N1CCC[C@H]1C(=O)O` [Enalapril maleate, reference compound]: in series [1], the Solubility entry was “Soluble”. Moreover, in series [2], the “ADP production IC50” value was “N.E. ^1”.

For orientation: inhibition means the share of the control response that was lost under treatment. On to `CN(C)c1ccc(C(=C2C=CC(=[N+](C)C)C=C2)c2ccc(N(C)C)cc2)cc1` [Gentian violet, reference compound], for which the Solubility entry in series [1] was “Soluble”. Besides, the inhibition at 10 µM was 23% in series [2] (read-out: averaged percent inhibition (two data sets)); 23% in series [2] (read-out: percent inhibition, Set 1); 23% in series [2] (read-out: percent inhibition, Set 2). With `O=c1oc2c(O)c(O)cc3c(=O)oc4c(O)c(O)cc1c4c23` [Ellagic acid], in series [1], the Solubility result is “Soluble”. Regarding `O=c1c(O)c(-c2ccc(O)c(O)c2)oc2cc(O)cc(O)c12` [Quercetin], the Solubility result in series [1] is reported as “Soluble”.

With `O=c1c(-c2cc(O)c(O)c(O)c2)coc2cc(O)c(O)c(O)c12` [Irigenol], the Solubility entry in series [1] is on record as “Soluble”.

Regarding `O=c1c(O)c(-c2cc(O)c(O)c(O)c2)oc2cc(O)cc(O)c12` [Myricetin], the Solubility result in series [1] is “Soluble”.
